# Experimental data taken from patent US20240368150A1 (Hoffmann-La Roche Inc., priority 2021, published 2024).
# Like-named read-outs stand apart in the source and are kept apart here.
# How the values were obtained:
# primary human T-cells [1] = experiment: Proliferation assay after 5 days (CellTiter-Glo, CD3 stimulation; PBS counter screen); format: cell-based; conditions: CD3 stimulation; for Emax / Emax proliferation (% activation): 5 days, normalized to reference compound A1 as stimulator control = 100%, DMSO neutral control; for Emax: read-out: Emax proliferation (% activation); for EC50: primary human T-cells, CellTiter-Glo after 5 days, EC50 of fitted sigmoidal curve, read-out: Tcell Proliferation CD3 EC50
# Method in brief: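 Read-out: CellTiter-Glo 2.0 luminescence (ATP ∝ cell number) at day 5 after compound addition. Compounds activating unstimulated cells or reducing viability flagged.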
# primary human T-cells [2] = system: primary human T-cells
SMILES,EC50 (primary human T-cells [2]),"Emax (primary human T-cells [1]; Homo sapiens, T-cell, 120 h)","EC50 (primary human T-cells [1]; Homo sapiens, T-cell, 120 h)",Emax proliferation (% activation) (primary human T-cells [1]),EC50 (primary human T-cells [1])
"N[C@H]1CS(=O)(=O)c2cc(F)c(-c3noc(C4(CO)CCCO4)n3)cc2N(Cc2ccc(Cl)cc2)C1=O (stereo partly drawn) [Example 320, (3R)-3-amino-5-[(4-chlorophenyl)methyl]-8-fluoro-7-[5-[2-(hydroxymethyl)tetrahydrofuran-2-yl]-1,2,4-oxadiazol-3-yl]-1,1-dioxo-2,3-dihydro-1λ^6,5-benzothiazepin-4-one]",3210 nM,107%,3060 nM,–,–
"CN1CC(c2nc(-c3cc4c(cc3F)S(=O)(=O)C[C@H](N)C(=O)N4Cc3ccc(Cl)cc3)no2)CC(C)(C)C1 (stereo partly drawn) [Example 324, (3R)-3-amino-5-[(4-chlorophenyl)methyl]-8-fluoro-1,1-dioxo-7-[5-(1,5,5-trimethyl-3-piperidyl)-1,2,4-oxadiazol-3-yl]-2,3-dihydro-1λ^6,5-benzothiazepin-4-one]",4370 nM,107%,341 nM,–,–
"C#CCOCCOCCOCCCC(C)(C)c1nc(-c2cc3c(cc2F)S(=O)(=O)C[C@H](N)C(=O)N3Cc2ccc(Cl)cc2)no1 [Example 327, (3R)-3-amino-5-[(4-chlorophenyl)methyl]-7-[5-[1,1-dimethyl-4-[2-(2-prop-2-ynoxyethoxy)ethoxy]butyl]-1,2,4-oxadiazol-3-yl]-8-fluoro-1,1-dioxo-2,3-dihydro-1λ^6,5-benzothiazepin-4-one]",2330 nM,104%,722 nM,–,–
"N[C@H]1CS(=O)(=O)c2cc(F)c(-c3noc(C4(CO)CCCO4)n3)cc2N(Cc2ccc(OC(F)(F)F)cc2)C1=O (stereo partly drawn) [Example 332, (3R)-3-amino-8-fluoro-7-[5-[2-(hydroxymethyl)tetrahydrofuran-2-yl]-1,2,4-oxadiazol-3-yl]-1,1-dioxo-5-[[4-(trifluoromethoxy)phenyl]methyl]-2,3-dihydro-1λ^6,5-benzothiazepin-4-one]",746 nM,128%,814 nM,–,–
"COC(=O)N1CC2CC(c3nc(-c4cc5c(cc4F)S(=O)(=O)C[C@H](N)C(=O)N5Cc4ccc(OC(F)(F)F)cc4)no3)(C2)C1 [Example 335, methyl 1-[3-[(3R)-3-amino-8-fluoro-1,1,4-trioxo-5-[[4-(trifluoromethoxy)phenyl]methyl]-2,3-dihydro-1λ^6,5-benzothiazepin-7-yl]-1,2,4-oxadiazol-5-yl]-3-azabicyclo[3.1.1]heptane-3-carboxylate]",819 nM,161%,–,–,–
"COC(=O)N1CC2CC(c3nc(-c4cc5c(cc4F)[S+]([O-])C[C@H](N)C(=O)N5Cc4ccc(OC(F)(F)F)cc4)no3)(C2)C1 (stereo partly drawn) [Example 336, methyl 1-[3-[(3R)-3-amino-8-fluoro-1,4-dioxo-5-[[4-(trifluoromethoxy)phenyl]methyl]-2,3-dihydro-1λ^4,5-benzothiazepin-7-yl]-1,2,4-oxadiazol-5-yl]-3-azabicyclo[3.1.1]heptane-3-carboxylate]",7020 nM,–,–,114 % activation,1100 nM
"COC(=O)N1CC2CC(c3nc(-c4cc5c(cc4F)[S+]([O-])C[C@H](N)C(=O)N5Cc4ccc(OC(F)(F)F)cc4)no3)(C2)C1 (stereo partly drawn) [Example 337, methyl 1-[3-[(3R)-3-amino-8-fluoro-1,4-dioxo-5-[[4-(trifluoromethoxy)phenyl]methyl]-2,3-dihydro-1λ^4,5-benzothiazepin-7-yl]-1,2,4-oxadiazol-5-yl]-3-azabicyclo[3.1.1]heptane-3-carboxylate]",5950 nM,–,–,92 % activation,2270 nM
"CC(C)Oc1ccc(CN2C(=O)[C@@H](N)CS(=O)(=O)c3cc(F)c(-c4noc(C5CN(C)CC(F)(F)C5)n4)cc32)nc1 (stereo partly drawn) [Example 346, (3R)-3-amino-7-[5-(5,5-difluoro-1-methyl-3-piperidyl)-1,2,4-oxadiazol-3-yl]-8-fluoro-5-[(5-isopropoxy-2-pyridyl)methyl]-1,1-dioxo-2,3-dihydro-1λ^6,5-benzothiazepin-4-one]",5720 nM,100%,5650 nM,–,–
"CC(C)Oc1ccc(CN2C(=O)[C@@H](N)CS(=O)(=O)c3cc(F)c(-c4noc(C5CN(C)CC(F)(F)C5)n4)cc32)cn1 (stereo partly drawn) [Example 347, (3R)-3-amino-7-[5-(5,5-difluoro-1-methyl-3-piperidyl)-1,2,4-oxadiazol-3-yl]-8-fluoro-5-[(6-isopropoxy-3-pyridyl)methyl]-1,1-dioxo-2,3-dihydro-1λ^6,5-benzothiazepin-4-one]",3500 nM,151%,977 nM,–,–
COC(=O)N1CCC(c2nc(-c3cc4c(cc3F)S(=O)(=O)C[C@H](N)C(=O)N4Cc3ccc(OC(C)C)cc3)no2)C1 (some centres unmarked) [Example 349],1330 nM,124%,399 nM,–,–

# Now from value to compound, other results behind:
EC50 (primary human T-cells [2]),SMILES,"Emax (primary human T-cells [1]; Homo sapiens, T-cell, 120 h)","EC50 (primary human T-cells [1]; Homo sapiens, T-cell, 120 h)",Emax proliferation (% activation) (primary human T-cells [1]),EC50 (primary human T-cells [1])
597 nM,"CC(C)(C#N)c1nc(-c2cc3c(cc2F)S(=O)(=O)C[C@H](N)C(=O)N3Cc2ccc(Cl)cc2)no1 [Example 321, 2-[3-[(3R)-3-amino-5-[(4-chlorophenyl)methyl]-8-fluoro-1,1,4-trioxo-2,3-dihydro-1λ^6,5-benzothiazepin-7-yl]-1,2,4-oxadiazol-5-yl]-2-methyl-propanenitrile]",130%,250 nM,–,–
740 nM,"Cc1nnc(-c2nc(-c3cc4c(cc3F)S(=O)(=O)C[C@H](N)C(=O)N4Cc3ccc(Cl)cc3)no2)o1 [Example 322, (3R)-3-amino-5-[(4-chlorophenyl)methyl]-8-fluoro-7-[5-(5-methyl-1,3,4-oxadiazol-2-yl)-1,2,4-oxadiazol-3-yl]-1,1-dioxo-2,3-dihydro-1λ^6,5-benzothiazepin-4-one]",110%,751 nM,–,–
455 nM,"CN(C)Cc1nc(-c2cc3c(cc2F)S(=O)(=O)C[C@H](N)C(=O)N3Cc2ccc(Cl)cc2)no1 [Example 325, (3R)-3-amino-5-[(4-chlorophenyl)methyl]-7-[5-[(dimethylamino)methyl]-1,2,4-oxadiazol-3-yl]-8-fluoro-1,1-dioxo-2,3-dihydro-1λ^6,5-benzothiazepin-4-one]",96%,869 nM,–,–
703 nM,"N[C@H]1CS(=O)(=O)c2cc(F)c(-c3noc(C(F)(F)C(F)(F)F)n3)cc2N(Cc2ccc(Cl)cc2)C1=O [Example 326, (3R)-3-amino-5-[(4-chlorophenyl)methyl]-8-fluoro-1,1-dioxo-7-[5-(1,1,2,2,2-pentafluoroethyl)-1,2,4-oxadiazol-3-yl]-2,3-dihydro-1λ^6,5-benzothiazepin-4-one]",129%,908 nM,–,–
1080 nM,"CN(C)C(=O)c1nc(-c2cc3c(cc2F)S(=O)(=O)C[C@H](N)C(=O)N3Cc2ccc(OC(F)(F)F)cc2)no1 [Example 328, 3-[(3R)-3-amino-8-fluoro-1,1,4-trioxo-5-[[4-(trifluoromethoxy)phenyl]methyl]-2,3-dihydro-1λ^6,5-benzothiazepin-7-yl]-N,N-dimethyl-1,2,4-oxadiazole-5-carboxamide]",120%,1960 nM,–,–
198 nM,"NC(c1nc(-c2cc3c(cc2F)S(=O)(=O)C[C@H](N)C(=O)N3Cc2ccc(OC(F)(F)F)cc2)no1)C(F)(F)F (stereo partly drawn) [Example 329, (3R)-3-amino-7-[5-(1-amino-2,2,2-trifluoro-ethyl)-1,2,4-oxadiazol-3-yl]-8-fluoro-1,1-dioxo-5-[[4-(trifluoromethoxy)phenyl]methyl]-2,3-dihydro-1λ^6,5-benzothiazepin-4-one]",70%,5330 nM,–,–
1830 nM,"CC(C)(C)NC(=O)c1nc(-c2cc3c(cc2F)S(=O)(=O)C[C@H](N)C(=O)N3Cc2ccc(OC(F)(F)F)cc2)no1 [Example 330, 3-[(3R)-3-amino-8-fluoro-1,1,4-trioxo-5-[[4-(trifluoromethoxy)phenyl]methyl]-2,3-dihydro-1λ^6,5-benzothiazepin-7-yl]-N-tert-butyl-1,2,4-oxadiazole-5-carboxamide]",132%,291 nM,–,–
714 nM,"N[C@H]1CS(=O)(=O)c2cc(F)c(-c3noc(C4(N)COC4)n3)cc2N(Cc2ccc(OC(F)(F)F)cc2)C1=O [Example 333, (3R)-3-amino-7-[5-(3-aminooxetan-3-yl)-1,2,4-oxadiazol-3-yl]-8-fluoro-1,1-dioxo-5-[[4-(trifluoromethoxy)phenyl]methyl]-2,3-dihydro-1lambda6,5-benzothiazepin-4-one]",94%,1220 nM,–,–
239 nM,"Cc1nnc(-c2nc(-c3cc4c(cc3F)S(=O)(=O)C[C@H](N)C(=O)N4Cc3ccc(OC(F)(F)F)cc3)no2)o1 [Example 334, (3R)-3-amino-8-fluoro-7-[5-(5-methyl-1,3,4-oxadiazol-2-yl)-1,2,4-oxadiazol-3-yl]-1,1-dioxo-5-[[4-(trifluoromethoxy)phenyl]methyl]-2,3-dihydro-1λ^6,5-benzothiazepin-4-one]",80%,345 nM,–,–
1580 nM,"COC(F)(c1nc(-c2cc3c(cc2F)[S+]([O-])C[C@H](N)C(=O)N3Cc2ccc(Cl)cc2)no1)C(F)(F)F (stereo partly drawn) [Example 338, (3R)-3-amino-5-[(4-chlorophenyl)methyl]-8-fluoro-1-oxo-7-[5-(1,2,2,2-tetrafluoro-1-methoxy-ethyl)-1,2,4-oxadiazol-3-yl]-2,3-dihydro-1λ^4,5-benzothiazepin-4-one]",137%,282 nM,–,–
473 nM,"N[C@H]1CS(=O)(=O)c2cc(F)c(-c3noc(C4(C(F)(F)F)CC4)n3)cc2N(Cc2ccc(OC(F)(F)F)cc2)C1=O [Example 344, (3R)-3-amino-8-fluoro-1,1-dioxo-5-[[4-(trifluoromethoxy)phenyl]methyl]-7-[5-[1-(trifluoromethyl)cyclopropyl]-1,2,4-oxadiazol-3-yl]-2,3-dihydro-1λ^6,5-benzothiazepin-4-one]",120%,69.7 nM,–,–
